Read-outs that look alike come from different tables or passages of the source.
Tests used:
[1] = molecular target: T1, hS1P4 (ProLink-tagged, PathHunter) (Homo sapiens, UniProt O95977); assay: PathHunter beta-arrestin recruitment; type: cell-based
T1 construct: gene S1PR4; ProLink-tagged receptor, PathHunter HEK293 cells
T1 sequence (O95977 1-384): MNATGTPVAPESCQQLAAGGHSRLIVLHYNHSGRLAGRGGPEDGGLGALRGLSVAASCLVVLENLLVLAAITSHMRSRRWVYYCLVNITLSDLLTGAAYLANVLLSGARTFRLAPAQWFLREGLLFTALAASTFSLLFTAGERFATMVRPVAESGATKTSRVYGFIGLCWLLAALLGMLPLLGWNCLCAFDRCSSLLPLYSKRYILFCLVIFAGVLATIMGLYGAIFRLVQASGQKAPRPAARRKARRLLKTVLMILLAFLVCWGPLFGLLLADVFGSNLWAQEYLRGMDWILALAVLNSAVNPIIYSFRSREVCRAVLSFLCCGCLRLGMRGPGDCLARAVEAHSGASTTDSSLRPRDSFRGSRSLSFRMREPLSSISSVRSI

[2] = molecular target: T2, hS1P2 (ProLink-tagged, PathHunter) (Homo sapiens, UniProt O95136); assay: PathHunter beta-arrestin recruitment; type: cell-based
T2 construct: gene S1PR2; PathHunter HEK293 cells, ProLink-tagged; N-terminal HA tag in the internalization assay
T2 sequence (O95136 whole entry): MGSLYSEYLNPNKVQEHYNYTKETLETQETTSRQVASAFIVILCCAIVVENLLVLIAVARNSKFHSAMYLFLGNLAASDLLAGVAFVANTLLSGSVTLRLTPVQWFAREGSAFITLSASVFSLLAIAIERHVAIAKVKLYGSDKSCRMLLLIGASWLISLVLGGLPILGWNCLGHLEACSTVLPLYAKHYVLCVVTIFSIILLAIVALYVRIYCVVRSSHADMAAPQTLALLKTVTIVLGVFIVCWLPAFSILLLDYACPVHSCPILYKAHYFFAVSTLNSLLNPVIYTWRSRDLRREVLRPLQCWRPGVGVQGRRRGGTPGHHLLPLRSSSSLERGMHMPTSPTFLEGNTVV

[3] = molecular target: T3, hS1P5 (ProLink-tagged, PathHunter) (Homo sapiens, UniProt Q9H228); assay: PathHunter beta-arrestin recruitment; type: cell-based
T3 construct: gene S1PR5; ProLink-tagged receptor, PathHunter HEK293 cells
T3 sequence (Q9H228 whole entry): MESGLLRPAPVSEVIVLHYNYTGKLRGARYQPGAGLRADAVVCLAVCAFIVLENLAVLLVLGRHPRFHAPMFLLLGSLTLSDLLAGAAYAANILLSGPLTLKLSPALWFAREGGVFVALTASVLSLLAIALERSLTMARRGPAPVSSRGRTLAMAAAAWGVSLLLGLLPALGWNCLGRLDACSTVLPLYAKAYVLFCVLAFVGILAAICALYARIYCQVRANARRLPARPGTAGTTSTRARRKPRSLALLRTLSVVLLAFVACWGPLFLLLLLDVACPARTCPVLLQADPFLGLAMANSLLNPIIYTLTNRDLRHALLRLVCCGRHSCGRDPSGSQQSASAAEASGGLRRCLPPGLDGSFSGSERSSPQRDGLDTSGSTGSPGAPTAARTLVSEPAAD

[4] = molecular target: T3, hS1P5 (ProLink-tagged, PathHunter); assay: cell-based; set-up: species or system PathHunter HEK293; PathHunter beta-arrestin recruitment, agonist concentration-response; details: HEK293, read-out: S1P5 β-Arrestin Emax, % of S1P
Excerpt: (§1) We extended our pharmacological analysis of etrasimod and the other test compounds on S1P2–5. […] All tested compounds were agonists of S1P5, inducing both G protein signaling and β‐arrestin recruitment (Table S2).

[5] = molecular target: T1, hS1P4 (ProLink-tagged, PathHunter); assay: cell-based; set-up: species or system PathHunter HEK293; PathHunter beta-arrestin recruitment, agonist concentration-response; details: HEK293, read-out: S1P4 β-Arrestin Emax, % of S1P
Excerpt: as §1

hS1P2 [6] = molecular target: T4, hS1P2 (Homo sapiens, UniProt O95136); assay: […]GTPgammaS binding, CHO-K1 membranes; type: biochemical
T4 construct: gene S1PR2; receptor stably expressed in CHO-K1 cells
T4 sequence (O95136 whole entry): as the sequence (O95136 whole entry) above

hS1P5 [7] = molecular target: T5, hS1P5 (Homo sapiens, UniProt Q9H228); assay: […]GTPgammaS binding, CHO-K1 membranes; type: biochemical
T5 construct: gene S1PR5; receptor stably expressed in CHO-K1 cells
T5 sequence (Q9H228 whole entry): as the sequence (Q9H228 whole entry) above

hS1P3 [8] = molecular target: T6, hS1P3 (Homo sapiens, UniProt Q99500); assay: biochemical; type: CHO-K1 membranes; set-up: [35S]GTPgammaS binding to membranes, agonist concentration-response; details: read-out: S1P3 GTPγS Emax, % of S1P
T6 construct: gene S1PR3; receptor stably expressed in CHO-K1 cells
T6 sequence (Q99500 whole entry): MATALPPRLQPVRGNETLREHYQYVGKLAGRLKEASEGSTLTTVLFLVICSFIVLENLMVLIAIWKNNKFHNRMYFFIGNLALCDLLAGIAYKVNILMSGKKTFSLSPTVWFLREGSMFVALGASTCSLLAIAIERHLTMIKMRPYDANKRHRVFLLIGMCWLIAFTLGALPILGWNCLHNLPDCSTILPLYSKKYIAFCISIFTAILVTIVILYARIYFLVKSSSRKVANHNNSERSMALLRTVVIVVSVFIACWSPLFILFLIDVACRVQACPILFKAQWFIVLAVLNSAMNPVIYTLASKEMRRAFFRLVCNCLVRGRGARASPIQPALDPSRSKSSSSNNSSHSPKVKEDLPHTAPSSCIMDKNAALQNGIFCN
Excerpt: (§2) All tested compounds were agonists of S1P5, inducing both G protein signaling and β‐arrestin recruitment (Table S2).

hS1P5 [9] = molecular target: T5, hS1P5; assay: biochemical; type: CHO-K1 membranes; set-up: [35S]GTPgammaS binding to membranes, agonist concentration-response; details: read-out: S1P5 GTPγS Emax, % of S1P
Excerpt: as §2

hS1P4 [10] = molecular target: T7, hS1P4 (Homo sapiens, UniProt O95977); assay: […]GTPgammaS binding, CHO-K1 membranes; type: biochemical
T7 construct: gene S1PR4; receptor stably expressed in CHO-K1 cells
T7 sequence (O95977 1-384): T1 sequence (O95977 1-384)

hS1P3 [11] = molecular target: T6, hS1P3; assay: […]GTPgammaS binding, CHO-K1 membranes; type: biochemical
[12] = molecular target: T8, hS1P3 (ProLink-tagged, PathHunter) (Homo sapiens, UniProt Q99500); assay: cell-based; set-up: species or system PathHunter HEK293; PathHunter beta-arrestin recruitment, agonist concentration-response; details: HEK293, read-out: S1P3 β-Arrestin Emax, % of S1P
T8 construct: gene S1PR3; ProLink-tagged receptor, PathHunter HEK293 cells
T8 sequence (Q99500 whole entry): as above
Excerpt: as §1

hS1P2 [13] = molecular target: T4, hS1P2; assay: biochemical; type: CHO-K1 membranes; set-up: [35S]GTPgammaS binding to membranes, agonist concentration-response; details: read-out: S1P2 GTPγS Emax, % of S1P
Excerpt: as §2

hS1P4 [14] = molecular target: T7, hS1P4; assay: biochemical; type: CHO-K1 membranes; set-up: [35S]GTPgammaS binding to membranes, agonist concentration-response; details: read-out: S1P4 GTPγS Emax, % of S1P
Excerpt: as §2

[15] = molecular target: T2, hS1P2 (ProLink-tagged, PathHunter); assay: receptor internalization, fluorescence microscopy; type: cell-based; details: N-terminal HA tag, 37 °C

| Compound | EC50 [1] [nM] | EC50 ([2]; read-out: EC50) [nM] | EC50 [3] [nM] | Emax [4] [%] | Emax [5] [%] | EC50 (hS1P2 [6]; read-out: EC50) [nM] | EC50 (hS1P5 [7]) [nM] | Emax (hS1P3 [8]) [%] | Emax (hS1P5 [9]) [%] | EC50 (hS1P4 [10]) [nM] | EC50 (hS1P3 [11]) [nM] | EC50 ([2]; agonist, 0.1% fatty acid-free BSA, room temperature, 2 h) | Emax [12] [%] | EC50 (hS1P2 [6]; agonist, 0.1% fatty acid-free BSA, room temperature, 10 mM MgCl2) | Emax (hS1P2 [13]) [%] | Emax (hS1P4 [14]) [%] | receptor internalization, fluorescence microscopy [15] |
| --- | --- | --- | --- | --- | --- | --- | --- | --- | --- | --- | --- | --- | --- | --- | --- | --- | --- |
| O=C(O)C[C@H]1CCc2c1[nH]c1ccc(OCc3ccc(C4CCCC4)c(C(F)(F)F)c3)cc21 [Etrasimod] | 141 | > 10000 | 63.5 | 85.7 | 53.9 | > 10000 | 63.4 | 41.5 | 72 | > 10000 | 6050 | – | – | – | – | – | – |
| CCCCCCCCc1ccc(CCC(N)(CO)COP(=O)(O)O)cc1 (stereo not shown) [Fingolimod(P)] | 6.9 | – | – | 48.4 | 77.6 | – | – | 39.1 | 69.5 | 6.1 | – | fingolimod(P) was a weak agonist, in terms of both potency and efficacy | 9.1 | fingolimod(P) was a weak agonist, in terms of both potency and efficacy | 35.2 | 121 | – |
| CC(C)Oc1ccc(-c2nc(-c3cccc4c3CC[C@@H]4NCCO)no2)cc1C#N [Ozanimod] | > 500 | – | 12.3 | – | – | – | 28.8 | – | – | > 10000 | > 6000 | – | – | – | – | – | Fingolimod(P) and ozanimod induced robust S1P2 internalization in a dose‐dependent and saturable fashion |
| CC(C)Oc1ccc(-c2nc(-c3cccc4c3CCC4=O)no2)cc1C#N [Ozanimod(K)] | > 500 | – | 95.8 | 115 | 89.1 | – | 58.5 | – | 105 | > 10000 | > 10000 | – | – | – | – | – | – |
| CCc1cc(/C(C)=N/OCc2ccc(C3CCCCC3)c(C(F)(F)F)c2)ccc1CN1CC(C(=O)O)C1 [Siponimod] | > 500 | – | – | 107 | 92.6 | – | – | – | 118 | 510 | > 10000 | – | – | – | – | 134 | – |

— PMC11705451 (FEBS Open Bio, 2024)
